# Source: article PMC7824033, “Flavones, Flavonols, and Glycosylated Derivatives—Impact on Candida albicans Growth and Virulence, Expression of CDR1 and ERG11, Cytotoxicity” (Pharmaceuticals, 2020)
# “Also recorded” adds a separate entry of the source. Read-outs that look alike come from different tables or passages of the source.
# How the values were obtained:
# [1] = system: C. albicans 475/15 biofilm formation; experiment: Inhibition of biofilm formation (crystal violet); assay type: cell-based, Candida albicans; conditions: for reduction of biofilm formation: concentration not given
# Procedure: Potential of selected compounds to interfere with C. albicans 475/15 biofilm formation was investigated as previously described. Briefly, C. albicans 475/15 was incubated with serial dilution of the compounds (MIC and subMICs) in YPD medium, in 96-well microtiter plates with adhesive bottom (Sarstedt, Nümbrecht, Germany), at 37 °C for 24 h. After incubation, wells were washed twice with sterile PBS and methanol was added into each well. After fixation, methanol was discarded, and the plate was air dried. Formed biofilms were stained with 0.1% crystal violet (Bio-Merieux, Craponne, France) for 30 min. The plate was gently washed under the tap of water and air dried. The stain bound to the remaining biofilms was dissolved with ethanol (96%, Zorka, Šabac, Serbia). Absorbance was read on a Multiskan™ FC Microplate Photometer, Thermo Scientific™. The percentage of inhibition of biofilm formation was calculated by the formula:[(A620control − A620sample)/A620control] × 100
# [2] = system: C. albicans 475/15 hyphal growth; experiment: Anti-hyphal forming activity; assay type: cell-based, Candida albicans; conditions: MIC, 4 h, YPD + 10% FBS
# Procedure: C. albicans 475/15 cells were incubated with MIC of tested compounds in YPD + 10% FBS, at 37 °C, for 4 h. Cells were examined under microscope (Nikon Eclipse TS2, Amsterdam, Netherland) and number of cells, growing in the yeast or hyphal and germ tube formations, was determined. Assay was performed in triplicate and percentage of hyphae was determined.
# CDR1 [3] = experiment: Expression of CDR1 (qPCR); assay type: cell-based, Candida albicans; conditions: treatment with MIC; for CDR1 expression level, log2FC: 30 min, normalized to ACT1
# Procedure: (§1) Total RNA was isolated as described by Sanglard et al. with some modifications. C. albicans 475/15 was grown with agitation at 30 °C in YEPD until OD540 = 0.4. C. albicans cells were incubated with MIC of compounds in YEPD at 30 °C with agitation for 30 min. Cells were centrifuged (4600 rpm, 4 °C for 5 min (Rotanata 460 R, Hettich, Tuttlingen, Germany)) and the pellet was resuspended in 300 µL of RNA buffer (0.1 M Tris-HCl pH 7.5, 0.1M LiCl, 10mM EDTA, 0.5% SDS). The pellet was homogenized with 200 µL of DEPC treated glass beads and 300 µL of Phenol:Chloroform:Isoamyl Alcohol (Sigma-Aldrich, Darmstadt, Germany) in Precellys Evolution tissue homogenizer (Bertion instruments, Montigny-le-Bretonneux, France) at 4500 rpm for 5 s. After centrifugation (14,000 rpm, 4 °C, 1 min (Universal 32 R, Hettich, Tuttlingen, Germany)) 200 µL of supernatant was vortexed with 250 µL of Phenol:Chloroform:Isoamyl Alcohol for 10 s. Samples were centrifuged (14,000 rpm, 4 °C, 1 min) and 200 µL of supernatant was transferred to new tubes, 400 µL of ice-cold 99% ethanol was added to each tube, and they were kept on dry ice for 10 min. Samples were centrifuged (14,000 rpm, 4 °C, 2 min), pellet was washed with ethanol (70%), left to dry at room temperature, after which it was dissolved in 50 µL of DEPC treated water. Nanodrop (ND-1000, Witec AG, Sursee, Switzerland) was used for determination of concentration and purity of samples. RNA was stored at −80°C.
# (§2) Amount of 10 µg RNA was incubated with 5 µL of DNAse buffer and 1 µL of DNAse at 37 °C for 30 min (DNA-free™ DNA Removal Kit, Ambion, Bleiswijk, Netherlands). After addition of DNAse inactivation reagent tubes were kept at room temperature with occasional vortexing for 5 min. Samples were centrifuged (14,000 rpm, 4°C, 2 min) and the concentration and quality of supernatant were analyzed on Nanodrop (ND-1000, Witec AG, Sursee, Switzerland).
# (§3) Synthesis of cDNA was done with a Transcriptor High Fidelity cDNA synthesis kit (Roche). RNA (1 µg) was incubated with 60 µM random hexamer primers, in 11.4 µL of total sample volume, at 65 °C for 10 min. The mixture of Transcriptase reaction buffer 5×, Deoxynucleotide mix, DTT, Protector RNAse inhibitor, and Transcriptor High Fidelity Reverse Transcriptase was added to each tube according to manufacturer instructions. Synthesis of cDNA was completed by incubating the mixture at 50 °C for 30 min and 85 °C for 5 min (Peqstar thermocycler, Peqlab, Erlangen, Germany).
# (§4) Wells of MicroAmp Fast 96-Well Reaction plate ((0.1 mL), Applied biosystems, Waltham, MA, USA) were incubated with 10 µL of mixture (cDNA, 2× MasterMix, primers, probe (Table 3), and water). Analysis was performed in StepOnePlus Real Time PCR system with relative standard curve method. Expression levels of CDR1 and ERG11 were normalized to expression of ACT1.
# ERG11 [4] = experiment: Expression of ERG11 (qPCR); assay type: cell-based, Candida albicans; conditions: treatment with MIC
# Procedure: as §1, §2, §3, §4
# in vitro = conditions: pig
# Procedure: (§5) Preparation of PLP2 cell line was performed with freshly harvested porcine liver supplied from a local slaughter house. Tissues from the liver were washed in Hank’s balanced salt solution comprising 100 U/mL penicillin and 100 μg/mL streptomycin and split into 1 × 1 mm^3 explants. Some of the prepared explants were set in 25 cm^2 tissue flasks in Dulbecco’s modified Eagle’s medium (DMEM) with 10% fetal bovine serum (FBS), 2 mM nonessential amino acids, 100 U/mL penicillin, and […] streptomycin, and incubation was conducted at 37 °C with 5% CO2 in a humidified atmosphere. The fresh medium was added every 2 days. Cultivation of the cells was further conducted with direct observation by the phase contrast microscope every 2–3 days. Before confluence was achieved, cells were subcultured and seeded in 96-well plates at a density of 1.0 × 10^4 cells per well and cultivated in DMEM supplemented with 10% FBS, 100 U/mL penicillin, and 100 μg/mL streptomycin. Previously described Sulforhodamine B assay was used for the determination of cytotoxicity. The obtained results were defined as GI50 values corresponding to the compound concentration that inhibits 50% of the net cell growth. Ellipticine was used as a positive control.
# C. albicans 475/15 [5] = system: C. albicans 475/15; parameters: method as in PMID 28827996; conditions: previously published; cited from earlier work
# C. albicans biofilm = conditions: cited from earlier work
# S. aureus efflux = system: S. aureus efflux; parameters: method as in PMID 25961825; conditions: bacterial efflux pumps; cited from earlier work
# [6] = system: HUVE (human umbilical vein endothelial) cells; conditions: read-out: LC50; cited from earlier work
# porcine liver cells PLP2 = experiment: Cytotoxicity, Sulforhodamine B assay; conditions: PLP2 cells
# Procedure: as §5
# 3T3-L1 pre-adipocytes = conditions: up to 100 μM; cited from earlier work
# C. albicans 10/15 = experiment: Microdilution assay, MIC and MFC; assay type: cell-based; conditions: Candida albicans, C. albicans 10/15, mean ± SD of three replicates
# From the text: (§6) C. albicans was isolated from oral cavities of patients at ENT Clinic, Clinical Hospital Centre Zvezdara, Belgrade, Serbia after obtaining informed written consent and identified by using CHROMagar plates (Biomerieux, Craponne, France). Strains were maintained on Sabouraud Dextrose Agar (Merck, Darmstadt, Germany) and are deposited at the Mycological Laboratory, Department of Plant Physiology, Institute for Biological Research “Siniša Stanković”, National Institute of Republic of Serbia, University of Belgrade. The collection of samples was approved by the Ethical Committee (Office for Human Research Protection, Zvezdara University Medical Center, Belgrade, Serbia, document issued 26 October 2016).
# (§7) Microdilution assay with some modification was used for determination of minimum inhibitory (MIC) and minimum fungicidal concentrations (MFC). Yeast cultures were adjusted to 1.0 × 10^5 CFU/per well with sterile PBS (Phosphate buffered saline, pH 7.4). The 96-well microtiter plates with serially diluted flavonoids (concentration range 0.3–75 µg/mL) in liquid broth were incubated at 37 °C for 24 h. After incubation, MIC and MFC were determined. The lowest concentrations that were not inducing microscopically observed growth were considered as MIC. For microscopic determination of growth, we used inverted microscope Nikon Eclipse TS2 (Amsterdam, Netherland) and examined the fungal growth in the wells of 96-well microtiter plates compared to the control (untreated yeast cells). MFC values were determined as concentrations without visible growth after serial sub-cultivation of 10 µL of samples at 37 °C for 24 h. Ketoconazole and amphotericin B (SigmaAldrich, Darmstadt, Germany) were used as an antifungal control. The tested flavonoids were obtained from Extrasynthese, Rhone, France.
# C. albicans 13/15 = experiment: Microdilution assay, MIC and MFC; assay type: cell-based; conditions: Candida albicans, C. albicans 13/15, mean ± SD of three replicates
# From the text: as §6, §7
# C. albicans 475/15 [7] = experiment: Microdilution assay, MIC and MFC; assay type: cell-based; conditions: Candida albicans, C. albicans 475/15, mean ± SD of three replicates
# From the text: as §6, §7
# C. albicans 527/14 = experiment: Microdilution assay, MIC and MFC; assay type: cell-based; conditions: Candida albicans, C. albicans 527/14, mean ± SD of three replicates
# From the text: as §6, §7
# CDR1 [8] = conditions: identical assay, previously published; cited from earlier work
# ERG11 [9] = conditions: identical assay, previously published; cited from earlier work
smiles,measurement,setting,value
"O=c1cc(-c2ccc(O)cc2)oc2cc(O)cc(O)c12 [Apigenin, apigenin]",reduction of biofilm formation,[1],more than 50%
same,reduction of hyphal growth (words),[2],lowest number of cells growing in the hyphal form
same,"CDR1 expression level, log2FC",CDR1 [3],< −1 log2FC
same,impact on CDR1 expression,CDR1 [3]; listed as apigenin,downregulated; also recorded: inhibitory impact; also recorded: lowering CDR1 expression
same,impact on ERG11 expression (words),ERG11 [4],negative impact
same,impact on ERG11 expression (words),ERG11 [4]; listed as apigenin,lower expression levels; also recorded: lowering ERG11 expression
same,GI50,in vitro,> 400 mg/L
same,MIC,C. albicans 475/15 [5],100 mg/L
same,antibiofilm effect,"C. albicans biofilm; 125 µg/mL, oral and reference isolates SC5314 and 3153A",did not show any antibiofilm effect
same,concentration necessary for biofilm reduction,C. albicans biofilm; C. albicans ATCC 90028,5 µg/mL
same,concentration that inhibited bacterial efflux pumps,S. aureus efflux,38 µg/mL
same,CC50,[6],110 µM
"O=c1cc(-c2ccc(O)cc2)oc2cc(O[C@@H]3O[C@H](CO)[C@@H](O)[C@H](O)[C@H]3O)cc(O)c12 [Apigetrin, apigetrin]",antibiofilm activity,[1]; MIC and subMICs,notably lowered
same,inhibition of biofilm formation,[1]; compound applied at MIC/2,> 60%
same,reduction of biofilm formation,[1],more than 50%
same,reduction of hyphal growth (words),[2],lowest number of cells growing in the hyphal form; also recorded: strongest anti-hyphal potential
same,impact on CDR1 expression,CDR1 [3],downregulated; also recorded: inhibitory impact; also recorded: lowering CDR1 expression
same,"CDR1 expression level, log2FC",CDR1 [3],< −1 log2FC
same,GI50,in vitro,90 ± 1 mg/L
same,cytotoxic effect,porcine liver cells PLP2,some cytotoxic effect
same,MIC,C. albicans 475/15 [5],50 mg/L
same,cytotoxicity,3T3-L1 pre-adipocytes,does not induce cytotoxicity
"CC(=O)N1CCN(c2ccc(OCC3COC(Cn4ccnc4)(c4ccc(Cl)cc4Cl)O3)cc2)CC1 (centres unmarked) [Ketoconazole, reference compound]",MFC,C. albicans 10/15; read-out: MFC,50 ± 0.1 mg/L
same,MIC,C. albicans 10/15; read-out: MIC,3.1 ± 0.1 mg/L
same,MFC,C. albicans 13/15; read-out: MFC,50 ± 0.2 mg/L
same,MIC,C. albicans 13/15; read-out: MIC,1.6 ± 0.2 mg/L
same,MFC,C. albicans 475/15 [7]; read-out: MFC,6.2 ± 0.1 mg/L
same,MIC,C. albicans 475/15 [7]; read-out: MIC,3.1 ± 0.1 mg/L
same,MFC,C. albicans 527/14; read-out: MFC,6.2 ± 0.1 mg/L
same,MIC,C. albicans 527/14; read-out: MIC,3.1 ± 0.1 mg/L
same,impact on CDR1 expression,CDR1 [8],lack
same,impact on ERG11 expression (words),ERG11 [9],lack
